Measured values taken from paper PMC6923474 (Scientific Reports, 2019).
Entries after “also recorded” stand apart in the source; their conditions may differ. Where two headings read alike, the source gives them in different places.

What was measured:
NMDA receptors (NMDARs) = experiment: Whole-cell patch-clamp of NMDA-activated currents in primary cultures of cortical neurons; assay type: cell-based, rat
Protocol: All manipulations on animals were performed in accordance with the guide of the Federation for Laboratory Animal Science Associations and were approved by the Animal Care and Use Committees of Sechenov Institute. Briefly, 16 days pregnant Wistar rats (14 female rats used in this study, supplied by the Sechenov Institute Animal Facility) were placed in a plastic box connected to a CO2 tank by a tube and then sacrificed by 1 min CO2 inhalation. Fetuses were removed and then primary cultures of rat cortical neurons were prepared using conventional procedures as described earlier[27],[66]. Neurons were grown in Neurobasal culture medium supplemented with B-27 (Gibco-Invitrogen, UK) on glass coverslips coated with poly-D-lysine and were used for experiments after 10–15 days in culture[66],[67].
Whole-cell currents were recorded from cultured rat cortical neurons using a MultiClamp 700B patch-clamp amplifier with Digidata 1440 A controlled by pClamp v10.2 software (Molecular Devices). Recordings were 8-order low-pass filtered at 200 Hz and the acquisition rate was 20000 samples per second. Solution exchange was performed by means of a fast solution application system as described earlier. Unless otherwise specified, the external bathing solution contained (in mM): 140 NaCl; 2.8 KCl; 1.0 CaCl2; 10 HEPES, at pH 7.2–7.4, osmolarity 310 mOsm. The intrapipette solution contained (in mM): 120 CsF, 10 CsCl, 10 EGTA, and 10 HEPES, osmolarity 300 mOsm[14], with pH adjusted to 7.4 with CsOH. Patch pipettes of 2–4 MΩ were pulled from Sutter BF150-89-10 borosilicate capillaries. Experiments were performed at 23–25 °C. Under control conditions, neurons were voltage clamped at −70 mV. Data are reported without corrections for liquid junction potential, which was measured as −11 mV. To activate NMDARs, 100 µM NMDA and 30 µM glycine were co-applied. Some experiments were performed on neurons loaded with BAPTA. To load BAPTA, cortical neuron cultures were incubated in bathing solution containing 10 µM BAPTA-AM for 2 hours.
Whole-cell membrane currents activated by NMDA were measured at steady state. The fraction of blocked current was calculated as 1 − Ib/Ic, where Ic is the amplitude of current activated by agonists and Ib is the amplitude of current activated by agonists in the presence of blocker.
Amplitudes of currents measured in the presence of blocker were normalized to maximal current response in control (Ic). […]
The obtained values were fitted with the Woodhull equation[36]:6 IC50(Vm)=IC50(0mV)⋅exp(VmzδF/RT) where IC50(0 mV) and δ were set as free parameters. […] For Faraday constant, gas constant and room temperature of 25 °C the RT/F ≈ 25.7 mV.
The rise time of currents activated by the testing NMDA + Gly application in trapping channel block experiments was fit in ClampFit (pClamp, Axon Instruments) using the double exponential function:7 I=I1·exp(−t/τ1)+I2⋅exp(−t/τ2)−C where I1 and I2 are amplitudes of the exponential and τ1 and τ2 are time constants of the exponential and C equals I1 + I2 + Ib.

NMDARs = details: cited from earlier work
[1] = cited from earlier work
GluN1/GluN2A NMDARs = tested on: GluN1/GluN2A NMDARs; set-up: method as in PMID 28877967; details: Ca2+-dependent manner; not GluN1/GluN2B receptors; cited from earlier work

CN(C)CCC=C1c2ccccc2CCc2ccccc21 [ATL, amitriptyline]
concentrations showing voltage-dependent open-channel block of NMDARs (NMDA receptors (NMDARs)): > 70 µM | decrease of IC50 per 1 mM increase of external [Ca2+] (NMDA receptors (NMDARs)): roughly 5 fold | voltage dependence of block of NMDAR currents (NMDA receptors (NMDARs); 10 μM ATL, 1 mM Ca2+, −70 mV vs −30 mV): voltage dependence was not observed; also recorded: voltage-independent | Ca2+ dependence of inhibition of NMDAR currents (NMDA receptors (NMDARs); 10 μM ATL, −70 mV, 2 mM vs 0.25 mM Ca2+): far more pronounced in 2 mM Ca^2+- than in 0.25 Ca^2+- containing media | voltage dependence of block of NMDAR currents (NMDA receptors (NMDARs); 20 μM ATL, 2 mM Ca2+, −40 mV to +40 mV): did not find any voltage dependence | effect on closed NMDARs (ATL applied prior to NMDA) (NMDA receptors (NMDARs); 100 μM ATL, 0.25 mM or 2 mM Ca2+, −70 mV): did not significantly affect currents activated by NMDA | voltage dependence of block of NMDAR currents (NMDA receptors (NMDARs); 100 μM ATL, 1 mM Ca2+, −70 mV vs −30 mV): depended on membrane voltage; also recorded: voltage-dependent | type of open-channel block (trapping protocol) (NMDA receptors (NMDARs); 200 µM ATL, 0.25 mM Ca2+, −70 mV): did not cause tail currents; also recorded: partial trapping | τs, slow rise time constant of test current (ATL unblock) (NMDA receptors (NMDARs); 200 µM ATL, washout delay 0.5 s, −70 mV, 0.25 mM Ca2+): 11 ± 3.2 s | τs, slow rise time constant of test current (ATL unblock) (NMDA receptors (NMDARs); 200 µM ATL, washout delay 1 s, −70 mV, 0.25 mM Ca2+): 13 ± 5.7 s | τs, slow rise time constant of test current (ATL unblock) (NMDA receptors (NMDARs); 200 µM ATL, washout delay 2 s, −70 mV, 0.25 mM Ca2+): 13.2 ± 4.0 s | τs, slow rise time constant of test current (ATL unblock) (NMDA receptors (NMDARs); 200 µM ATL, washout delay 4 s, −70 mV, 0.25 mM Ca2+): 15 ± 2.9 s | voltage shift giving an e-fold change of IC50 (NMDA receptors (NMDARs); 0.25 mM Ca2+): 50 mV | δ, fraction of the membrane electric field (Woodhull model) (NMDA receptors (NMDARs); 0.25 mM Ca2+, Eq. 6): 0.51 | fraction of ATL inhibition of NMDAR currents (1-Ib/Ic) (NMDA receptors (NMDARs); ATL 10 μM, −30 mV, [Ca2+] 0.25 mM): 0.12 ± 0.05 | fraction of ATL inhibition of NMDAR currents (1-Ib/Ic) (NMDA receptors (NMDARs); ATL 10 μM, −30 mV, [Ca2+] 2 mM): 0.30 ± 0.05 | fraction of ATL inhibition of NMDAR currents (1-Ib/Ic) (NMDA receptors (NMDARs); ATL 10 μM, −70 mV, [Ca2+] 0.25 mM): 0.13 ± 0.06 | fraction of ATL inhibition of NMDAR currents (1-Ib/Ic) (NMDA receptors (NMDARs); ATL 10 μM, −70 mV, [Ca2+] 2 mM): 0.42 ± 0.04 | fraction of ATL inhibition of NMDAR currents (1-Ib/Ic) (NMDA receptors (NMDARs); ATL 100 μM, −30 mV, [Ca2+] 0.25 mM): 0.40 ± 0.07 | fraction of ATL inhibition of NMDAR currents (1-Ib/Ic) (NMDA receptors (NMDARs); ATL 100 μM, −30 mV, [Ca2+] 2 mM): 0.35 ± 0.04 | fraction of ATL inhibition of NMDAR currents (1-Ib/Ic) (NMDA receptors (NMDARs); ATL 100 μM, −70 mV, [Ca2+] 0.25 mM): 0.79 ± 0.05 | fraction of ATL inhibition of NMDAR currents (1-Ib/Ic) (NMDA receptors (NMDARs); ATL 100 μM, −70 mV, [Ca2+] 2 mM): 0.79 ± 0.03 | IC50 (NMDA receptors (NMDARs); [Ca2+] 2–4 mM, read-out: IC50 values at physiological extracellular [Ca2+]): 0.7 to 7 µM | fraction of ATL inhibition of NMDAR currents (1-Ib/Ic) (NMDA receptors (NMDARs); co-application of agonists and 100 μM ATL, −70 mV, [Ca2+] 0.25 mM): 0.85 ± 0.06 | fraction of ATL inhibition of NMDAR currents (1-Ib/Ic) (NMDA receptors (NMDARs); co-application of agonists and 100 μM ATL, −70 mV, [Ca2+] 2 mM): 0.85 ± 0.05 | IC50 (NMDA receptors (NMDARs); extrapolated to 0 mM Ca2+, −70 mV, read-out: IC50 at [Ca2+] = 0, single exponential approximation): 91 µM | IC50 (NMDA receptors (NMDARs); extrapolated to 0 mV, 0.25 mM Ca2+, read-out: IC50 (0 mV), fit with Woodhull equation (Eq. 6)): 220 µM | [Ca2+] shift giving an e-fold change of IC50 (b value), optimized (NMDA receptors (NMDARs); optimized by fitting all data with IC50(Vm,[Ca2+]) equation): 0.69 mM | fraction of ATL inhibition of NMDAR currents (1-Ib/Ic) (NMDA receptors (NMDARs); pre-application of 100 μM ATL, −70 mV, [Ca2+] 0.25 mM): 0.12 ± 0.01 | fraction of ATL inhibition of NMDAR currents (1-Ib/Ic) (NMDA receptors (NMDARs); pre-application of 100 μM ATL, −70 mV, [Ca2+] 2 mM): 0.17 ± 0.03 | IC50 (NMDA receptors (NMDARs); read-out: IC50 for ATL inhibition of NMDAR currents, −30 mV, 0.25 mM Ca2+): 129 µM | IC50 (NMDA receptors (NMDARs); read-out: IC50 for ATL inhibition of NMDAR currents, −70 mV, 0.25 mM Ca2+ in bathing solution, 100 μM NMDA + 30 μM Gly): 63 ± 9.3 µM | IC50 (NMDA receptors (NMDARs); read-out: IC50 for ATL inhibition of NMDAR currents, −70 mV, 0.5 mM Ca2+, 100 μM NMDA + 30 μM Gly): 37.6 ± 7.7 µM | IC50 (NMDA receptors (NMDARs); read-out: IC50 for ATL inhibition of NMDAR currents, −70 mV, 1 mM Ca2+, BAPTA-loaded neurons): 106 ± 9.5 µM | IC50 (NMDA receptors (NMDARs); read-out: IC50 for ATL inhibition of NMDAR currents, −70 mV, 1 mM Ca2+, control (intact) neurons): 21.6 ± 8.7 µM | IC50 (NMDA receptors (NMDARs); read-out: IC50 for ATL inhibition of NMDAR currents, −70 mV, 2 mM Ca2+): 4.9 ± 1 µM | IC50 (NMDA receptors (NMDARs); read-out: IC50 for ATL inhibition of NMDAR currents, −70 mV, 4 mM Ca2+): 0.72 µM | IC50 (NMDA receptors (NMDARs); read-out: IC50 for ATL inhibition of NMDAR currents, −100 mV, 0.25 mM Ca2+): 34.2 ± 9.8 µM | [Ca2+] shift giving an e-fold change of IC50 (b value) (NMDA receptors (NMDARs); single exponential fit of IC50 vs [Ca2+], −70 mV): 0.63 mM | Hill coefficient h (NMDA receptors (NMDARs); −70 mV, 0.25 mM Ca2+): 1.4 ± 0.1 | rate constant of binding (kon) (NMDA receptors (NMDARs); −70 mV, 0.25 mM Ca2+, Eq. 3): 0.0016 ± 0.00009 s⁻¹ µM⁻¹ | rate constant of dissociation (koff) (NMDA receptors (NMDARs); −70 mV, 0.25 mM Ca2+, Eq. 4): 0.204 ± 0.005 s⁻¹ | Kd (NMDA receptors (NMDARs); −70 mV, 0.25 mM Ca2+, Eq. 5, read-out: apparent equilibrium dissociation constant (Kd = koff/kon)): 128 ± 7.8 µM | Hill coefficient h (NMDA receptors (NMDARs); −70 mV, 0.5 mM Ca2+): 1.5 ± 0.1 | Hill coefficient h (NMDA receptors (NMDARs); −70 mV, 1 mM Ca2+): 1.6 ± 0.5 | Hill coefficient h (NMDA receptors (NMDARs); −70 mV, 2 mM Ca2+): 1.2 ± 0.1 | Hill coefficient h (NMDA receptors (NMDARs); −70 mV, 4 mM Ca2+): 1.5 ± 0.2 | ATL concentrations required for the NMDAR channel block (NMDARs): 15 to 60 µM | therapeutic window for ATL concentrations in the blood plasma ([1]; blood plasma): 0.3 to 1 µM | ATL concentration in brain tissue ([1]; brain tissue): ≤ 10 µM

Br.Br.NCCCCCNCC12CC3CC(CC(C3)C1)C2 [IEM-1754, N-(tricyclo[3.3.1.13,7]dec-1-ylmethyl)-1,5-pentanediamine dihydrobromide]
Ca2+ dependence of block of NMDA-activated currents (NMDA receptors (NMDARs); 10 μM IEM-1754, −70 mV, 2 mM vs 0.25 mM Ca2+): resistant to a 4-fold increase of [Ca^2+]

NC12CC3CC(CC(C3)C1)C2 [amantadine]
δ, fraction of the membrane electric field (NMDARs): 0.72

CNC1(c2ccccc2Cl)CCCCC1=O (centres unmarked) [ketamine]
sensitivity of NMDAR block to external [Ca2+] (NMDARs): no sensitivity to changes in external [Ca^2+] | δ, fraction of the membrane electric field (NMDARs): 0.55

CC12CC3CC(C)(C1)CC(N)(C3)C2 [memantine]
δ, fraction of the membrane electric field (NMDARs; by different estimates): 0.65–0.91 | effect on recovery from desensitization (GluN1/GluN2A NMDARs): slows the rate of recovery from desensitization of GluN1/GluN2A NMDARs
